These results are taken from paper PMC6520475 (European Journal of Drug Metabolism and Pharmacokinetics, 2018).

For data set [1] the following is noted: general statement, no reference given; cited from earlier work.
The conditions of data set [2]: cited from earlier work.
Data set [3] is described as follows: Population pharmacokinetic. As to conditions: base model without covariates.

Consider `CN[C@H](CC(C)C)C(=O)N[C@H]1C(=O)N[C@@H](CC(N)=O)C(=O)N[C@H]2C(=O)N[C@H]3C(=O)N[C@H](C(=O)N[C@H](C(=O)O)c4cc(O)cc(O)c4-c4cc3ccc4O)[C@H](O)c3ccc(c(Cl)c3)Oc3cc2cc(c3O[C@@H]2O[C@H](CO)[C@@H](O)[C@H](O)[C@H]2O[C@H]2C[C@](C)(N)[C@H](O)[C@H](C)O2)Oc2ccc(cc2Cl)[C@H]1O` [vancomycin], for which, in data set [1], the “Fraction of vancomycin excreted through the kidney” value is 90%. Further, the “Vd, PopPK model” value in data set [2] (Adult Chinese patients, n = 72, 1-compartment model, ref 7 (Deng)) is recorded as 47.76 L. Further, the “V2, PopPK model” value in data set [2] (Adult Gram-positive bacterial infection in ICU, n = 103, ref 25 (Weng Fangjuan)) was 44.2 L. Further, the “CL, PopPK model” value in data set [2] (MRSA infectors, n = 76, 1-compartment model, ref 11 (Leu)) is reported as “CLCR”. In addition, in data set [3], the “θ1CL, population typical value of CL, base model” value was found to be 2.47 L/h and the “θ2Vd, population typical value of Vd, base model” value was determined as 142 L.
